From patent US5877185A, “Synergistic compositions useful as anti-tumor agents” (priority 1995, dated 1999)

Legend:
[1] = metabolic conversion of INO2 BA to INH2 BA by 855-2 cells; assay type: in vitro ADME; conditions: 855-2 cells; 120 μM INO2 BA, 37° C.; read-out: rate of reduction of the nitro to the amino end-product
Protocol: (§1) The cell metabolites of INO2 BA metabolism were identified. A suspension of 855-2 cells (6), 150×10^6 cells in ml of RPMI-1640 medium, was dosed with INO2 BA to a concentration of 120 μM, incubated at 37° C. for 18 hr, and then freeze-dried, extracted 3 times with EtOH (10 ml each time) for 30 min and centrifuged. The extract was rotary evaporated to dryness, redissolved in EtOH (3.0 ml), microfuged to remove small particles, and aliquots (200 μl) injected into HPLC. In control experiments, instead of incubating the drug-dosed cell suspension it was immediately frozen, freeze-dried and extracted. HPLC analyses were performed essentially as reported earlier, except the pH of the buffers was 4.3. Buki et al., FEBS Lett. 290:181-185 (1991). Upon sample injection the gradient started from 100%A to 100%B in 30 min, to 50%B/50%C in 15 min, to 100%C in 3 min. Retention times of synthetic standards were: 4-iodo-3-hydroxylaminobenzamide 18.7 min; 4-iodo-3-aminobenzamide ("INH2 BA") 24.7 min; INO2 BA 34.5 min; INOBA 36.5 min and 6,6'-diiodo-3,3'-dicarbamoylazoxybenzene 46.9 min.

[2] = test system: 855-2 cells; assay: as above; assay type: in vitro ADME; conditions: 120 μM INO2 BA, 18 hr, 37° C.
Protocol: as §1

[3] = test system: AA-2 leukemia cells; assay: cytocidal effect in combination with ascorbate; conditions: for protection against apoptosis-inducing action: 160 μM ascorbate, 18 hr of drug exposure; for cell number Day 1 / cell number Day 2: alone or with ascorbate 160 μM; for cell number Day 1: 18 hr; for cell number Day 2: 42 hr
Protocol: Because of the in vitro reactivity of the nitroso group of INOBA with both ascorbate and GSH, the apoptosis-inducing effect of NOBA with the action of the prodrug INO2 BA in the presence of ascorbate, added simultaneously with both drugs was compared.
AA-2 cells were seeded at a density of 0.2×10^6 cells/ml. Drugs and/or sodium ascorbate were added at the time of seeding, and cells were counted by hemacytometer after incubation (37° C., 5% CO^2) for 18 hr (Day 1) and for 42 hr (Day 2). Viability was evaluated by Trypan Blue exclusion.

[4] = test system: Molt-4 cells; assay: time course of cell killing alone and with BSO, Molt-4; assay type: cell-based; conditions: Molt-4, 2-3 day period; 4 μM drug, 1 mM BSO
Protocol: (§2) Molt 4-cells were seeded at a density of 0.05×10^6 cell/ml in the recommended growth medium in the absence or the presence of drugs as indicated. Cells were incubated at 37° C. in a 5% CO2 atmosphere and proliferation was monitored in 14 hr. by cell counting in a hemacytometer. .smallcircle., untreated control; .circle-solid., treated with 4 μM 4-iodo-3-nitrobenzoic acid; .gradient., treated with 1 mM BSO; .tangle-soliddn., treated with 4 μM-iodo-3-nitrobenzoic acid and 1 mM BSO; .quadrature., treated with 4 μM 4-INO2 BA; .box-solid., treated with 1 mM BSO; .gradient., treated with 4 μM INO2 BA and 1 mM BSO. L-1210 cells were seeded at a density of 0.05×10^6 cells/ml either from untreated stock suspensions or from 24-hr. pretreated (0.2×10^6 cells/ml) suspensions. .smallcircle., untreated control; .circle-solid., treated with […] NOBA; .gradient., treated with 1 mM BSO; .tangle-soliddn., 24-hr pretreatment with 1 mM BSO then treated with 4 μM NOBA.
(§3) A time course of the cell killings by 4-iodo-3-nitrobenzoic acid, INO2 BA and NOBA, each alone and in combination with BSO was obtained. Molt-4 cells were seeded at a density of 0.05×10^6 cells/ml in the recommended growth medium in the absence or presence of drugs as indicated in FIG. 3. Drugs were added to the wells immediately after seeding from 10-40 mM stock solution in DMSO. BSO was added from a 100 mM aqueous stock solution. Cells were incubated at 37° C. in a 5% CO2 atmosphere and proliferation was monitored in 14 hours by cell counting in a hemacytometer.

[5] = test system: L-1210 cells; assay: time course of cell killing alone and with BSO, L-1210; assay type: cell-based, murine; conditions: L-1210, 2-3 day period; 1 mM BSO
Protocol: as §2, §3

[6] = test system: SIVmac in CEM ×174 cells; assay: SIVmac replication in CEM ×174 cells, reverse transcriptase assay; assay type: cell-based, SIV; conditions: for effect on SIVmac replication in pre-infected cells: cells pre-infected one day prior to treatment
Protocol: CEM ×174 cells (3×10^5 /ml) were infected with 3.75 TCID50 /ml (50% tissue culture infectious dosage per ml of cell suspension) stock solution of SIVmac239 or virus isolates from SIVmac239-infected rhesus macaques on day 0. Uniform infection of cells was ensured by the infection of one cell population only per virus preparation. Three days post-infection, the cells were distributed (500 μl/well) into individual wells of a 24-well plate. Fresh medium containing INO2 BA concentrations ranging from 0 to 300 μM and/or BSO concentrations ranging from 0 to 0.25 mM were added to establish final 1-ml reaction volumes, and the cultures were further incubated for 4 days. The wells were then replenished with fresh CEM ×174 cells (3×10^5 /ml), INO2 BA and/or BSO were re-added at the same concentrations as in the original incubates, and incubation was continued for an additional 3 days. This procedure intends to mimic conditions of in vivo chemotherapy. Cell viability and virus titers in the supernatant were determined on day 10 (3 days after the addition of new cells) by the tetrazolium (MTT) method of Hansen et al., J. Immunol. Methods 119:208-210 (1982) and by the SIV p27 and reverse transcriptase (RT) assays described by Chuang et al., FEBS Lett. 326:140-144 (1993), respectively.
To evaluate the activity of SIV reverse transcriptase, 10 μl of infected cell supernatant was added to a reaction mixture containing 50 mM Tris-HCl (pH 8.0), 5 mM MgCl2, 10 mM dithiothreitol, 20 mM KCl, and 1% Triton X-100 in a total volume of 50 μl. Poly(rA):oligo (dT)12-18 was present at 100 μg/ml and 2.4 μM [^3 H]TTP was used. The reaction mixtures were incubated at 37° C. for 1 hr and the TCA-precipitableradioactivity was filtered onto nitrocellulose filters which were then washed, dried and counted.
The effect of INO2 BA on SIVmac replication in CEM ×174 cells that were pre-infected with virus for one day prior to treatment with INO2 BA are shown in FIG. 6. The cell culture and SIV reverse transcription assay were performed as described in Example XIV.

[7] = 42 h, read-out: dead cells Day 2

SMILES: NC(=O)c1ccc(I)c([N+](=O)[O-])c1 [INO2 BA, 4-iodo-3-nitrobenzamide]
- metabolised at 18 h, 120 µM [1]: 2.2 ± 0.2%
- identified metabolite [2]: the only identified metabolite was INH2 BA
- protection against apoptosis-inducing action [3]: did not prevent apoptosis
- cytotoxicity at 16 µM [3, 7]: 40%
- cell number Day 1 ([3]; INO2 BA 16 μM): 250000 mL⁻¹
- cell number Day 2 ([3]; INO2 BA 16 μM): 450000 mL⁻¹
- effect on cell proliferation [4]: no significant effect
- effect on cell proliferation [5]: no significant effect
- reverse transcriptase activity ([6]; SIV-infected CEM ×174 cells, FIG. 6): greatly depressed
- effect on SIVmac replication in pre-infected cells [6]: effective even when incubated with cells that have been infected

SMILES: NC(=O)c1cccc(N=O)c1 [NOBA, 3-nitrosobenzamide]
- protection against apoptosis-inducing action [3]: completely protected
- cytotoxicity at 32 µM [3, 7]: 50%
- cell number Day 1 ([3]; NOBA 32 μM): 290000 mL⁻¹
- cell number Day 2 ([3]; NOBA 32 μM): 370000 mL⁻¹
- effect on cell proliferation [4]: no significant effect
- effect on cell proliferation [5]: no significant effect
- effect on SIVmac replication in pre-infected cells [6]: requires pre-incubation with cells prior to viral infection
